Target: T1, AR protein (Homo sapiens, UniProt P10275)
T1 construct: host or cells: VCaP
T1 sequence (P10275 1-920): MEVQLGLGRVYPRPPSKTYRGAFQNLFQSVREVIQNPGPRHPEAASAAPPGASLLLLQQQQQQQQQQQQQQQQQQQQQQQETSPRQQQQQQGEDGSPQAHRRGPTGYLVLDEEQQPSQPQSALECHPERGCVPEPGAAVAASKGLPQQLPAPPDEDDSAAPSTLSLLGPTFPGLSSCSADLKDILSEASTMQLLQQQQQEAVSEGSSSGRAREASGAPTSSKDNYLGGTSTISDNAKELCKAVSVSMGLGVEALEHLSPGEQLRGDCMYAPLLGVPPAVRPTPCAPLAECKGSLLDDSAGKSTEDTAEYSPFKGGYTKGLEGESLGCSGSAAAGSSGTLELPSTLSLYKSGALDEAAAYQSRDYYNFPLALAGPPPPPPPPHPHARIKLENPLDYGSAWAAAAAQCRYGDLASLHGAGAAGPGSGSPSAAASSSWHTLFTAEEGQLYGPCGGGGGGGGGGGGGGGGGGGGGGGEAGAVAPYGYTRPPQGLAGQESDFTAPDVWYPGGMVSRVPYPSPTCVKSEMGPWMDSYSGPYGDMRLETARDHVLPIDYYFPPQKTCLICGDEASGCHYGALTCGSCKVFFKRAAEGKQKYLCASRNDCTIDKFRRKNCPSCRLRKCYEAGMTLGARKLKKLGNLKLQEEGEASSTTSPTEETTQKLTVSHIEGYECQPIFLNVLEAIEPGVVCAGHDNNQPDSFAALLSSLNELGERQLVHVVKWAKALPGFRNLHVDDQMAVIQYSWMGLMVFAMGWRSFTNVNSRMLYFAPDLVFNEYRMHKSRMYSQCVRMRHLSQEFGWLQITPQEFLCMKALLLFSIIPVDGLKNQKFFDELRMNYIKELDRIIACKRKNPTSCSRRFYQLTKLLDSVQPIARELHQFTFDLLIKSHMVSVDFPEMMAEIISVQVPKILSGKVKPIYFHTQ
Assay: AR protein degradation in VCaP cells (Western blot)
Format: cell-based
Conditions: 8h
In short: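 AR-positive VCaP human prostate cancer cells grown in DMEM with 10% FBS were plated in six-well plates at 3×10^5 cells/well and incubated overnight. Compounds were then added at 1 µL/well alongside a solvent control and incubated for 8h. Lysates in RIPA buffer with protease inhibitor were quantified by BCA and run by SDS-PAGE. AR was detected by Western blot, and degradation was calculated from band grayscale normalized to GAPDH.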

| Compound | Degradation rate of AR protein in VCaP cells (0.5 nM) [%] | Degradation rate of AR protein in VCaP cells (5 nM) [%] | AR protein degradation rate at fixed concentration (%) at 0.0005 µM (0.5 nM) [%] | AR protein degradation rate at fixed concentration (%) at 0.005 µM (5 nM) [%] |
| --- | --- | --- | --- | --- |
| CC1(C)[C@H](NC(=O)c2ccc(N3CCC(CN4CCC5(CCc6cc(C(=O)N[C@H]7CCC(=O)NC7=O)c(F)cc6O5)CC4)CC3)nc2)C(C)(C)[C@H]1Oc1ccc(C#N)c(Cl)c1 [A-P-50, 1'-((1-(5-(((1R,3R)-3-(3-chloro-4-cyanophenoxy)-2,2,4,4-tetramethylcyclobutyl)carbamoyl)pyridin-2-yl)piperidin-4-yl)methyl)-N-((S)-2,6-dioxopiperidin-3-yl)-7-fluorospiro[chroman-2,4'-piperidin]-6-carboxamide] | 84 | 87 | – | – |
| C[C@H]1CC2(CCN(c3ccc(N4CCC(CN5CCC6(CC5)COc5ccc7c(c56)n(C)c(=O)n7C5CCC(=O)NC5=O)CC4)cc3)CC2)CN1c1ccc(C#N)c(Cl)c1 (some centres unmarked) [A-P-26, 2-chloro-4-((3 S)-8-(4-(4-((3-((2,6-dioxopiperidin-3-yl))-1-methyl-2-oxo-2,3-dihydro-1H,7H-spiro[benzofuro[4,5-d]imidazole-8,4'-piperidin]-1'-yl)methyl)piperidin-1-yl)phenyl)-3-methyl-2,8-diazaspiro[4.5]decan-2-yl)benzonitrile] | – | – | -43 | 18 |
| COc1cc(O[C@H]2C(C)(C)[C@H](NC(=O)c3ccc(N4CCC(F)(CN5CC6(CCC7(CC6)COc6c7ccc7c6CN(C6CCC(=O)NC6=O)C7=O)C5)CC4)cc3)C2(C)C)ccc1C#N (relative stereo) [A-P-5] | 38 | 73 | – | – |
| COc1cc(O[C@H]2C(C)(C)[C@H](NC(=O)c3ccc(N4CCC5(CC4)CC(N4CCC6(CC4)COc4cc7c(cc46)n(C)c(=O)n7C4CCC(=O)NC4=O)C5)cc3)C2(C)C)ccc1C#N (relative stereo) [A-P-21] | 57 | 71 | – | – |
| COc1cc(O[C@H]2C(C)(C)[C@H](NC(=O)c3ccc(N4CCC(CN5CCC6(CCc7cc(F)c(C(=O)N[C@H]8CCC(=O)NC8=O)cc7O6)CC5)(OC)CC4)cc3)C2(C)C)ccc1C#N [A-P-40] | -8 | 10 | – | – |
| COc1cc(O[C@H]2C(C)(C)[C@H](NC(=O)c3ccc(N4CCC(C)(CN5CCC6(CC5)COc5c6ccc(C(=O)N[C@H]6CCC(=O)NC6=O)c5F)CC4)cc3)C2(C)C)ccc1C#N [A-P-85, 1'-((1-(4-(((1r,3r)-3-(4-cyano-3-methoxyphenoxy)-2,2,4,4-tetramethylcyclobutyl)carbamoyl)phenyl)-4-methylpiperidin-4-yl)methyl)-N-((S)-2,6-dioxopiperidin-3-yl)-7-fluoro-2H-spiro[benzofuran-3,4'-piperidin]-6-carboxamide] | 18 | 34 | – | – |
| COc1cc(O[C@H]2C(C)(C)[C@H](NC(=O)c3ccc(N4CCC(CN5CCC6(CCc7cc(C(=O)N[C@H]8CCC(=O)NC8=O)c(F)cc7O6)CC5)CC4)nn3)C2(C)C)ccc1C#N [A-P-34, 1'-((1-(6-(((1R,3R)-3-(4-cyano-3-methoxyphenoxy)-2,2,4,4-tetramethylcyclobutyl)carbamoyl)pyridazin-3-yl)piperidin-4-yl)methyl)-N-((S)-2,6-dioxopiperidin-3-yl)-7-fluorospiro[chroman-2,4'-piperidin]-6-carboxamide] | 0 | 47 | – | – |
| COc1cc(O[C@H]2C(C)(C)[C@H](NC(=O)c3ccc(N4CCC(CN5CCN6c7ccc(N[C@H]8CCC(=O)NC8=O)cc7OC[C@@H]6C5)CC4)cc3)C2(C)C)ccc1C#N [A-P-100] | -20 | 21 | – | – |
| COc1cc(O[C@H]2C(C)(C)[C@H](NC(=O)c3ccc(N4CCC(CN5CCC6(CC5)COc5c6ccc(C(=O)N[C@H]6CCC(=O)NC6=O)c5F)(OC)CC4)cc3)C2(C)C)ccc1C#N [A-P-86, 1'-((1-(4-(((1r,3r)-3-(4-cyano-3-methoxyphenoxy)-2,2,4,4-tetramethylcyclobutyl)carbamoyl)phenyl)-4-methoxypiperidin-4-yl)methyl)-N-((S)-2,6-dioxopiperidin-3-yl)-7-fluoro-2H-spiro[benzofuran-3,4'-piperidin]-6-carboxamide] | -30 | 1 | – | – |
| COc1cc(O[C@H]2C(C)(C)[C@H](NC(=O)c3ccc(N4CCC(CN5CCC6(CCc7cc(C(=O)N[C@H]8CCC(=O)NC8=O)c(F)cc7O6)CC5)CC4)cc3)C2(C)C)ccc1C#N [A-P-30] | 36 | 71 | – | – |
| CC1(C)[C@H](NC(=O)c2ccc(N3CCC(CN4CCC5(CCc6cc(C(=O)N[C@H]7CCC(=O)NC7=O)c(F)cc6O5)CC4)CC3)nc2)C(C)(C)[C@H]1Oc1ccc(C#N)c(C(F)(F)F)c1 [A-P-45, 1'-((1-(5-(((1R,3R)-3-(4-cyano-3-(trifluoromethyl)phenoxy)-2,2,4,4-tetramethylcyclobutyl)carbamoyl)pyridin-2-yl)piperidin-4-yl)methyl)-N-((S)-2,6-dioxopiperidin-3-yl)-7-fluorospiro[chroman-2,4'-piperidin]-6-carboxamide] | 44 | 77 | – | – |
| COc1cc(O[C@H]2C(C)(C)[C@H](NC(=O)c3ccc(N4CCC(C)(CN5CCC6(CCc7cc(C(=O)N[C@H]8CCC(=O)NC8=O)c(F)cc7O6)CC5)CC4)cn3)C2(C)C)ccc1C#N [A-P-43, 1'-((1-(6-(((1r,3r)-3-(4-cyano-3-methoxyphenoxy)-2,2,4,4-tetramethylcyclobutyl)carbamoyl)pyridin-3-yl)-4-methylpiperidin-4-yl)methyl)-N-((S)-2,6-dioxopiperidin-3-yl)-7-fluorospiro[chroman-2,4'-piperidin]-6-carboxamide] | 33 | 32 | – | – |
| COc1cc(O[C@H]2C(C)(C)[C@H](NC(=O)c3ccc(N4CCC(N5CC6(CCC7(CC6)COc6c7ccc7c6CN(C6CCC(=O)NC6=O)C7=O)C5)CC4)cc3)C2(C)C)ccc1C#N (some centres unmarked) [A-P-2] | – | – | 50 | 83 |

Source: patent EP4722219A1 (Gan & Lee Pharmaceuticals Co., Ltd., priority 2023, dated 2024)
